Tested on: coloncarcinoma cells HT29
Assay: Kd on coloncarcinoma cells HT29
Assay type: binding
Method: 0.9 ml of [^99mTc(OH2)3(CO)3]^+ as prepared in example 1 is mixed with 0.1 ml of 10^−3M His-Neurotensin(8-13) (HRRPYIIL) and kept in a sealed tube at 75° C. for one hour. After this time the reaction mixture is cooled to room temperature. As evident from reversed phase column HPLC the yield is >95%. The Kd of this compound on coloncarcinoma cells HT29 is 1.0 nM.

HRRPYIIL [His-Neurotensin(8-13), His-Neurotensin(8-13) (HRRPYIIL) labelled with [99mTc(OH2)3(CO)3]+]
Kd: 1 nM
